Assays:
human CYP11B2 = target: T1, human CYP11B2 (Homo sapiens, UniProt P19099); assay: G-402 cellular enzyme assay, human CYP11B2 (aldosterone release, HTRF); type: cell-based; conditions: G-402 cells, 1 μM Deoxycorticosterone
T1 construct: expressed in transfected cells
T1 sequence (P19099 25-503): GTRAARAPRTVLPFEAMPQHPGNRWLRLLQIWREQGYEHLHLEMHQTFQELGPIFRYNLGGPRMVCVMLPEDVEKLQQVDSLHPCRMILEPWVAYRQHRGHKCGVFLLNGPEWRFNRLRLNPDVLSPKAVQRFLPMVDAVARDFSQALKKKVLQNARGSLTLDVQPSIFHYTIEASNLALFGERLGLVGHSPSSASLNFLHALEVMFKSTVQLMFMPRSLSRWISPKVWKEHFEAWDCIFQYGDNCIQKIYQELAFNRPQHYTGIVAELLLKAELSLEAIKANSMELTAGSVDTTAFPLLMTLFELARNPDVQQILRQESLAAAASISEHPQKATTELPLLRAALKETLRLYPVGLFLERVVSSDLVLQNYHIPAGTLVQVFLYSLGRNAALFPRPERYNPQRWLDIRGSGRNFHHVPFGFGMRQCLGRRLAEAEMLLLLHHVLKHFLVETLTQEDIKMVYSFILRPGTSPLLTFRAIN
Outline: (§1)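 G-402 cells stably expressing human CYP11B1 or CYP11B2, in DMEM/F12 with 2.5% charcoal-treated FCS, were incubated 16 h with test compound and substrate (1 μM 11-deoxycortisol for CYP11B1; 1 μM deoxycorticosterone for CYP11B2). Cortisol or aldosterone in supernatant was quantified by HTRF; EC50 from 4-parameter MMF fit.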

human CYP11B1 = target: T2, human CYP11B1 (Homo sapiens, UniProt P15538); assay: G-402 cellular enzyme assay, human CYP11B1 (cortisol release, HTRF); type: cell-based; conditions: G-402 cells, 1 μM Deoxycortisol
T2 construct: expressed in transfected cells
T2 sequence (P15538 25-503): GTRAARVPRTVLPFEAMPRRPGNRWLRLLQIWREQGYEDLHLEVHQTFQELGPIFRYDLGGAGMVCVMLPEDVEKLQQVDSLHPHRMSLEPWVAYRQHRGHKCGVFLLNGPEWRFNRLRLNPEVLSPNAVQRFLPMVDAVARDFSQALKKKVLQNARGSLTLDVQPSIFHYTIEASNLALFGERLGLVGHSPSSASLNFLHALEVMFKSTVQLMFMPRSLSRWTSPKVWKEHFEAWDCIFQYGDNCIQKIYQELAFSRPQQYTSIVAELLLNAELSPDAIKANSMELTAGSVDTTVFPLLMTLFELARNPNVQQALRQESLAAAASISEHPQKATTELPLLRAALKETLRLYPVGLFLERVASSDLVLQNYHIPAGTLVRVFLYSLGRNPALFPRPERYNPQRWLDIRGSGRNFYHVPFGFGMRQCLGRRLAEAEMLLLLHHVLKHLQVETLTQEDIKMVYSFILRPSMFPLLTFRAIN
Outline: as §1

Question: How did the EC50 (human CYP11B2) turn out when O=C1c2ccc(Cl)cc2CCN1c1cncc(CN2CC3(COC3)C2)c1 [Example 171, 6-Chloro-2-[5-(2-oxa-6-aza-spiro[3.3]hept-6-ylmethyl)-pyridin-3-yl]-3,4-dihydro-2H-isoquinolin-1-one] was run?
Answer: 17.2 nM

Question: And the EC50 (human CYP11B1)?
Answer: 88.9 nM

Question: For O=C1c2ccc(Cl)cc2CCN1c1cnccc1C(O)c1ccc(F)cc1 (stereo not shown) [Example 63, 6-Chloro-2-{4-[(4-fluoro-phenyl)-hydroxy-methyl]-pyridin-3-yl}-3,4-dihydro-2H-isoquinolin-1-one], which EC50 (human CYP11B2) is on record?
Answer: 448 nM

Question: And the EC50 (human CYP11B1)?
Answer: 4430 nM

Question: For CCOc1ccc2c(n1)C(C)(C)N(c1cncc(OC(F)F)c1)C2=O [Example 303, 6-(5-Difluoromethoxy-pyridin-3-yl)-2-ethoxy-7,7-dimethyl-6,7-dihydro-pyrrolo[3,4-b]pyridin-5-one], which EC50 (human CYP11B2) is on record?
Answer: 93.6 nM

Question: And the EC50 (human CYP11B1)?
Answer: 12600 nM

Question: Which EC50 (human CYP11B2) does the source give for CCS(=O)(=O)NCc1cncc(N2C(=O)c3ccc(F)cc3C23CC3)c1 [Example 393, N-{[5-(6′-Fluoro-3′-oxospiro [cyclopropane-1,1′-isoindol]-2′(3′H)-yl)pyridin-3-yl]methyl} ethane-sulfonamide] here?
Answer: 265 nM

Question: And the EC50 (human CYP11B1)?
Answer: 8430 nM

Question: O=C1c2ccc(Cl)cc2CCN1c1cncc(N2CCC[C@H]2CO)c1 [Example 135, 6-Chloro-2-[5-((S)-2-hydroxymethyl-pyrrolidin-1-yl)-pyridin-3-yl]-3,4-dihydro-2H-isoquinolin-1-one] was tested. Which EC50 (human CYP11B2) did it give?
Answer: 93.1 nM

Question: What about the EC50 (human CYP11B1) of the same compound?
Answer: 523 nM

Question: For O=C1NCCN1Cc1cncc(N2CCc3cc(Cl)ccc3C2=O)c1 [Example 158, 6-Chloro-2-[5-(2-oxo-imidazolidin-1-ylmethyl)-pyridin-3-yl]-3,4-dihydro-2H-isoquinolin-1-one], which EC50 (human CYP11B2) is on record?
Answer: 182 nM

Question: What about the EC50 (human CYP11B1) of the same compound?
Answer: 6030 nM

Question: How did the EC50 (human CYP11B2) turn out when C[C@H](O)c1cncc(N2CCc3cc(Cl)ccc3C2=O)c1 [Example 15, 6-Chloro-2-[5-((S)-1-hydroxy-ethyl)-pyridin-3-yl]-3,4-dihydro-2H-isoquinolin-1-one] was run?
Answer: 68.2 nM

Question: What about the EC50 (human CYP11B1) of the same compound?
Answer: 913 nM

Question: What does the source list for O=C1c2ccc(Cl)cc2CCN1c1cncc(CNc2ccc(F)cc2)c1 [Example 258, 6-Chloro-2-{5-[(4-fluoro-phenylamino)-methyl]-pyridin-3-yl}-3,4-dihydro-2H-isoquinolin-1-one]?
Answer: EC50 (human CYP11B2): 3.7 nM; EC50 (human CYP11B1): 41.8 nM

Question: What does the source list for O=C1CCCCN1Cc1cncc(N2CCc3cc(Cl)ccc3C2=O)c1 [Example 173, 6-Chloro-2-[5-(2-oxo-piperidin-1-ylmethyl)-pyridin-3-yl]-3,4-dihydro-2H-isoquinolin-1-one]?
Answer: EC50 (human CYP11B2): 334 nM; EC50 (human CYP11B1): 12300 nM

Question: Which results are given for CC[C@H]1c2cc(Cl)ccc2C(=O)N1c1cncc2c1CC[C@@H]2NC(C)=O (single isomer, unassigned) [Example 345, (−)-N—[(S or R)-4-((S or R)-5-Chloro-3-ethyl-1-oxo-1,3-dihydro-isoindol-2-yl)-6,7-dihydro-5H-[2]pyrindin-7-yl]-acetamide]?
Answer: EC50 (human CYP11B2): 49.4 nM; EC50 (human CYP11B1): 2000 nM

Question: How did the EC50 (human CYP11B2) turn out when Cc1nc2ccccc2n1Cc1cncc(N2CCc3cc(Cl)ccc3C2=O)c1 [Example 181, 6-Chloro-2-[5-(2-methyl-benzoimidazol-1-ylmethyl)-pyridin-3-yl]-3,4-dihydro-2H-isoquinolin-1-one] was run?
Answer: 217 nM

Question: And the EC50 (human CYP11B1)?
Answer: 1970 nM

Question: What does the source list for CCC1c2cc(Cl)ccc2C(=O)N1c1cncc(F)c1 (stereo not shown) [Example 126, 5-Chloro-3-ethyl-2-(5-fluoro-pyridin-3-yl)-2,3-dihydro-isoindol-1-one]?
Answer: EC50 (human CYP11B2): 37.9 nM; EC50 (human CYP11B1): 3560 nM

Question: CCS(=O)(=O)Nc1cncc(N2CCc3cc(Cl)ccc3C2=O)c1 [Example 218, Ethanesulfonic acid [5-(6-chloro-1-oxo-3,4-dihydro-1H-isoquinolin-2-yl)-pyridin-3-yl]-amide] was tested. Which EC50 (human CYP11B2) did it give?
Answer: 1550 nM

Question: What about the EC50 (human CYP11B1) of the same compound?
Answer: 14300 nM

Question: How did the EC50 (human CYP11B2) turn out when CC1(C)c2cc(Cl)ccc2C(=O)N1c1cncc(Cn2cccn2)c1 [Example 379, 5-Chloro-3,3-dimethyl-2-(5-pyrazol-1-ylmethyl-pyridin-3-yl)-2,3-dihydro-isoindol-1-one] was run?
Answer: 25.8 nM

Question: And the EC50 (human CYP11B1)?
Answer: 370 nM

Question: Which results are given for O=C(NC1CC1)c1cncc(N2CCc3cc(Cl)ccc3C2=O)c1 [Example 44, 5-(6-Chloro-1-oxo-3,4-dihydro-1H-isoquinolin-2-yl)-N-cyclopropyl-nicotinamide]?
Answer: EC50 (human CYP11B2): 5930 nM; EC50 (human CYP11B1): 16900 nM

Question: What does the source list for COC(c1cncc(N2CCc3cc(Cl)ccc3C2=O)c1)C1CC1 (stereo not shown) [Example 21, 6-Chloro-2-[5-(cyclopropyl-methoxy-methyl)-pyridin-3-yl]-3,4-dihydro-2H-isoquinolin-1-one]?
Answer: EC50 (human CYP11B2): 41.5 nM; EC50 (human CYP11B1): 263 nM

Question: For CC1Cc2cc(Cl)ccc2C(=O)N1c1cncc(CO)c1 (stereo not shown) [Example 86, 6-Chloro-2-(5-hydroxymethyl-pyridin-3-yl)-3-methyl-3,4-dihydro-2H-isoquinolin-1-one], which EC50 (human CYP11B2) is on record?
Answer: 377 nM

Question: What about the EC50 (human CYP11B1) of the same compound?
Answer: 7770 nM

Question: How did the EC50 (human CYP11B2) turn out when CCC(=O)N[C@@H]1CCCc2c1cncc2N1C(=O)c2ccc(Cl)cc2[C@H]1C (single isomer, unassigned) [Example 361, N-[(R or S)-4-((R or S)-5-Chloro-3-methyl-1-oxo-1,3-dihydro-isoindol-2-yl)-5,6,7,8-tetrahydro-isoquinolin-8-yl]-propionamide] was run?
Answer: 65.6 nM

Question: What about the EC50 (human CYP11B1) of the same compound?
Answer: 9410 nM

Question: CC(O)c1ccncc1N1CCc2cc(Cl)ccc2C1=O (stereo not shown) [Example 55, 6-Chloro-2-[4-(1-hydroxy-ethyl)-pyridin-3-yl]-3,4-dihydro-2H-isoquinolin-1-one] was tested. Which EC50 (human CYP11B2) did it give?
Answer: 343 nM

Question: And the EC50 (human CYP11B1)?
Answer: 9850 nM

Question: What does the source list for O=C1c2ccc(Cl)cc2CCN1c1cncc(CN2CCOCC2)c1 [Example 154, 6-Chloro-2-(5-morpholin-4-ylmethyl-pyridin-3-yl)-3,4-dihydro-2H-isoquinolin-1-one]?
Answer: EC50 (human CYP11B2): 74.7 nM; EC50 (human CYP11B1): 193 nM

Question: With CC(=O)N[C@@H]1CCCc2c1cncc2N1C(=O)c2ccc(Cl)cc2[C@H]1C (single isomer, unassigned) [Example 364, N-[(R or S)-4-((R or S)-5-Chloro-3-methyl-1-oxo-1,3-dihydro-isoindol-2-yl)-5,6,7,8-tetrahydro-isoquinolin-8-yl]-acetamide] as the compound, how does the EC50 (human CYP11B2) read?
Answer: 130 nM

Question: And the EC50 (human CYP11B1)?
Answer: 5570 nM

Question: CCC1c2cc(Cl)ccc2C(=O)N1c1cncc(OC)c1 (stereo not shown) [Example 127, 5-Chloro-3-ethyl-2-(5-methoxy-pyridin-3-yl)-2,3-dihydro-isoindol-1-one] was tested. Which EC50 (human CYP11B2) did it give?
Answer: 54.5 nM

Question: And the EC50 (human CYP11B1)?
Answer: 266 nM

Question: Which EC50 (human CYP11B2) does the source give for CCS(=O)(=O)NC1CCCc2c1cncc2N1Cc2cc(Cl)ccc2C1=O (single isomer, unassigned; (+)) [Example 316, (+)-Ethanesulfonic acid [(R or S)-4-(5-chloro-1-oxo-1,3-dihydro-isoindol-2-yl)-5,6,7,8-tetrahydro-isoquinolin-8-yl]-amide] here?
Answer: 40.2 nM

Question: What about the EC50 (human CYP11B1) of the same compound?
Answer: 1830 nM

Question: What does the source list for Nc1cccc2c(N3CCc4cc(Cl)ccc4C3=O)cncc12 [Example 288, 8′-Amino-6-chloro-3,4-dihydro-[2,4′]biisoquinolinyl-1-one]?
Answer: EC50 (human CYP11B2): 539 nM; EC50 (human CYP11B1): 8870 nM

Question: Which EC50 (human CYP11B2) does the source give for CC1(C)c2cc(Cl)ccc2C(=O)N1c1cncc(N2CCN(C(=O)c3ncccc3Cl)CC2)c1 [Example 459, 5-Chloro-2-{5-[4-(3-chloro-pyridine-2-carbonyl)-piperazin-1-yl]-pyridin-3-yl}-3,3-dimethyl-2,3-dihydro-isoindol-1-one] here?
Answer: 5.6 nM

Question: What about the EC50 (human CYP11B1) of the same compound?
Answer: 594 nM

Question: O=C1c2ccc(Cl)cc2CCN1c1cncc(CN2CCC[C@H]2CO)c1 [Example 149, 6-Chloro-2-[5-((S)-2-hydroxymethyl-pyrrolidin-1-ylmethyl)-pyridin-3-yl]-3,4-dihydro-2H-isuquinolin-1-one] was tested. Which EC50 (human CYP11B2) did it give?
Answer: 126 nM

Question: And the EC50 (human CYP11B1)?
Answer: 1920 nM

Question: Which results are given for COC(C)c1ccncc1N1CCc2cc(Cl)ccc2C1=O (stereo not shown) [Example 64, 6-Chloro-2-[4-(1-methoxy-ethyl)-pyridin-3-yl]-3,4-dihydro-2H-isoquinolin-1-one]?
Answer: EC50 (human CYP11B2): 127 nM; EC50 (human CYP11B1): 6310 nM

Question: With Cn1nccc1-c1cncc(N2CCc3cc(Cl)ccc3C2=O)c1 [Example 238, 6-Chloro-2-[5-(2-methyl-2H-pyrazol-3-yl)-pyridin-3-yl]-3,4-dihydro-2H-isoquinolin-1-one] as the compound, how does the EC50 (human CYP11B2) read?
Answer: 104 nM

Question: And the EC50 (human CYP11B1)?
Answer: 5990 nM

Question: With CS(=O)(=O)NCc1cncc(N2CCc3cc(Cl)ccc3C2=O)c1 [Example 152, N-[5-(6-Chloro-1-oxo-3,4-dihydro-1H-isoquinolin-2-yl)-pyridin-3-ylmethyl]-methanesulfonamide] as the compound, how does the EC50 (human CYP11B2) read?
Answer: 295 nM

Question: And the EC50 (human CYP11B1)?
Answer: 11600 nM

Reference: US9133158B2, “Bicyclic dihydroisoquinoline-1-one derivatives” (Hoffmann-La Roche Inc., priority 2011, dated 2015)
